Results from patent publication US20210379010A1, “COMPOSITIONS COMPRISING CANNABINOIDS FOR USE IN THE TREATMENT OF BIOFILM AND CONDITIONS ASSOCIATED WITH MICROBIAL, FUNGAL, BACTERIAL INFECTIONS” (Yissum Research Development Company of The Hebrew …, priority 2018, published 2021).
In brackets after ≈: the same amount, converted by molar mass. Several values for one entry are separate records, joined by “and”; a condition that tells them apart may be missing. Equal entries are not always repeated.

Assays:
[1] = system: S.aureus MRSA 33592 biofilm; test: Biofilm formation of MRSA 33592, cannabinoid alone and combined with antibiotic (MBIC/FBIC/FBICI); type: cell-based; conditions: for MBIC ARAS: ARAS alone
S. aureus MRSA 24433 = test: Growth of MRSA 24433, cannabinoid alone and combined with antibiotic (MIC/FIC/FICI); type: cell-based; conditions: MRSA 24433 growth, Table 3B
[2] = system: fluconazole resistant C. albicans strains; type: cell-based; conditions: each agent alone or in combination; data not shown
MRSA strain CI = test: Colony spreading on soft agar, MRSA CI; conditions: ARAS 64 μg/ml (sub-MIC)
Method: (§1) The swimming assay was performed on soft agar plates. 0.2% agar medium was prepared and autoclaved. The bacteria were exposed to the tested agents. 3 μl of overnight bacterial culture (O.D 595˜0.5) was inoculated at the centre of the agar plate. […] The plates were then incubated for 15 h.

[3] = system: mixed S. mutans-C. albicans; test: Growth of C. albicans-S. mutans co-culture; type: cell-based; conditions: mixed S. mutans-C. albicans growth
[4] = system: mixed C. albicans-S. mutans biofilm; test: Co-species C. albicans-S. mutans biofilm formation inhibition; type: cell-based
S.aureus MRSA 43300 = test: Growth of MRSA 43300, cannabinoid alone and combined with antibiotic (MIC/FIC/FICI); type: cell-based; conditions: MRSA 43300 growth; for MIC ARAS: ARAS alone
[5] = system: fluconazole resistant C. albicans strain DSY735 biofilm; conditions: Table 2
MRSA strain 43300 = test: Colony spreading on soft agar, MRSA 43300; conditions: ARAS 32 μg/ml (sub-MIC)
Method: as §1

[6] = system: fluconazole resistant C. albicans strain DSY551 biofilm; conditions: Table 2
MRSA strain 33592 = test: Colony spreading on soft agar, MRSA 33592; conditions: ARAS 16 μg/ml (sub-MIC)
Method: as §1

C. albicans biofilm = C. albicans biofilm formation inhibition; type: cell-based; conditions: single C. albicans biofilm formation
[7] = system: S.aureus MRSA 43300 biofilm; test: Biofilm formation of MRSA 43300, cannabinoid alone and combined with antibiotic (MBIC/FBIC/FBICI); type: cell-based; conditions: for MBIC ARAS: ARAS alone
S.aureus MRSA 33592 = test: Growth of MRSA 33592, cannabinoid alone and combined with antibiotic (MIC/FIC/FICI); type: cell-based; conditions: MRSA 33592 growth; for MIC ARAS: ARAS alone
S. mutans = S. mutans growth (MIC); type: cell-based; conditions: Streptococcus mutans; single S. mutans growth; read-out: MIC
C. albicans = C. albicans growth (MIC); type: cell-based; conditions: Candida albicans; single C. albicans growth; highest tested dose 64 μg/ml; read-out: MIC, fungal growth
[8] = system: S. aureus MRSA 24433 biofilm; test: Biofilm formation of MRSA 24433, cannabinoid alone and combined with antibiotic (MBIC/FBIC/FBICI); type: cell-based; conditions: Table 3B
S. mutans biofilm = S. mutans biofilm formation inhibition; type: cell-based; conditions: Streptococcus mutans; 8 μg/ml; read-out: inhibition of single S. mutans biofilm formation
[9] = MBIC of ARAS in combination with fluconazole

For CCCCC/C=C\C/C=C\C/C=C\C/C=C\CCCC(=O)N[C@@H](CO)C(=O)O [ARAS, arachidonoyl serine], which “MBIC ARAS” value ([1]; Table 3A) is on record?
The value was 32.

And the “MBIC ARAS” value ([1]; Table 4)?
The value was 32.

And the “MBIC ARAS” value ([1]; Table 5A)?
Its value is 32.

What about the “FBIC ARAS” value ([1]; MBIC of ARAS in combination with ampicillin, Table 5A) of the same molecule?
Its value is 16.

And the “FBIC ARAS” value ([1]; MBIC of ARAS in combination with gentamycin, Table 4)?
Its value is 4.

What about the “FBIC ARAS” value ([1]; MBIC of ARAS in combination with methicillin, Table 3A) of the same molecule?
The value was 16.

And the MIC ARAS (S. aureus MRSA 24433; ARAS alone)?
Its MIC ARAS is over 256 µg/mL.

And the “FIC ARAS” value (S. aureus MRSA 24433; MIC of ARAS in combination with methicillin)?
Its value is over 64.

And the “growth of fluconazole resistant fungal strains” value [2]?
The value was “not affected”.

What about the “inhibition of colony spreading vs untreated control” value (“inhibition … vs untreated control” below) (MRSA strain CI) of the same molecule?
Its value is 64% and 64 ± 2.5%.

What about the MIC [3] of the same molecule?
Its MIC is over 64 µg/mL.

What about the MBIC50 [4] of the same molecule?
Its MBIC50 is 32 µg/mL.

What about the MIC ARAS (S.aureus MRSA 43300; Table 3C) of the same molecule?
Its MIC ARAS is 64 µg/mL.

And the MIC ARAS (S.aureus MRSA 43300; Table 5B)?
Its MIC ARAS is 64 µg/mL.

What about the “FIC ARAS” value (S.aureus MRSA 43300; MIC of ARAS in combination with ampicillin, Table 5B) of the same molecule?
Its value is 16.

And the “FIC ARAS” value (S.aureus MRSA 43300; MIC of ARAS in combination with methicillin, Table 3C)?
Its value is 16.

What about the “MBIC ARAS” value ([5]; ARAS alone) of the same molecule?
The value was 64 µg/mL.

And the “FBIC ARAS” value [5, 9]?
The value was 32 µg/mL.

What about the “inhibition … vs untreated control” value (MRSA strain 43300) of the same molecule?
The value was 46% and 46 ± 2.8%.

And the “MBIC ARAS” value ([6]; ARAS alone)?
The value was 64 µg/mL.

What about the “FBIC ARAS” value [6, 9] of the same molecule?
The value was 32 µg/mL.

And the “inhibition … vs untreated control” value (MRSA strain 33592)?
The value was 65% and 65 ± 3.4%.

What about the “MBIC50 (minimal biofilm inhibitory concentration 50, 50% of biofilm inhibition)” value (C. albicans biofilm) of the same molecule?
Its value is 16 µg/mL.

What about the “MBIC ARAS” value ([7]; Table 3C) of the same molecule?
The value was 32.

What about the “MBIC ARAS” value ([7]; Table 5B) of the same molecule?
Its value is 32.

What about the “FBIC ARAS” value ([7]; MBIC of ARAS in combination with ampicillin, Table 5B) of the same molecule?
Its value is 8.

And the “FBIC ARAS” value ([7]; MBIC of ARAS in combination with methicillin, Table 3C)?
Its value is 8.

What about the MIC ARAS (S.aureus MRSA 33592; Table 3A) of the same molecule?
Its MIC ARAS is 64 µg/mL.

What about the MIC ARAS (S.aureus MRSA 33592; Table 4) of the same molecule?
The MIC ARAS was 32 µg/mL.

What about the MIC ARAS (S.aureus MRSA 33592; Table 5A) of the same molecule?
Its MIC ARAS is 32 µg/mL.

What about the “FIC ARAS” value (S.aureus MRSA 33592; MIC of ARAS in combination with ampicillin, Table 5A) of the same molecule?
The value was 8.

What about the “FIC ARAS” value (S.aureus MRSA 33592; MIC of ARAS in combination with gentamycin, Table 4) of the same molecule?
The value was 4.

What about the “FIC ARAS” value (S.aureus MRSA 33592; MIC of ARAS in combination with methicillin, Table 3A) of the same molecule?
Its value is 16.

What about the MIC (S. mutans) of the same molecule?
The MIC was 64 µg/mL (≈ 163 µM).

And the MIC (C. albicans)?
The MIC was over 64 µg/mL.

What about the “MBIC ARAS” value ([8]; ARAS alone) of the same molecule?
The value was 32.

And the “FBIC ARAS” value ([8]; MBIC of ARAS in combination with methicillin)?
The value was 16.

What about the inhibition at 8 µg/mL (S. mutans biofilm) of the same molecule?
Its inhibition at 8 µg/mL is over 50%.
